Laboratory results reported in patent US5130450A, “Platinum complexes” (Nippon Kayaku Kabushiki Kaisha, priority 1990, dated 1992).

Assays:
PC-3 cells = test: Growth inhibition of PC-3 cells derived from lung cancer, 72 h, methylene blue staining; type: cell-based
Procedure: (§1) After 24-hour incubation under the conditions of 37° C. and 5% CO2, 10 μl of the novel fat-soluble platinum complex was added in various concentrations and the PC-3 cells and SW-1116 cells were further cultured for 72 hours and 96 hours, respectively. Thereafter, the culture was drawn off from each well by using an aspirator, fixed with MeOH, then added with a 0.05% methylene blue/10 mM tris-(hydroxymethyl)aminomethanehydrochloric acid buffer solution (pH 8.5) at a rate of 100 μl/well and stained at room temperature for 30 minutes. Thereafter, each well was cleared of the staining solution by using an aspirator and washed three times with pure water. Then 3% hydrochloric acid solution was added at a rate of 200 μl/well, and after sealing, the culture was left at room temperature for about 24 hours and the pigment was extracted from the cells. The absorbance (A660) of each well at 660 nm was measured by a dynamic microplate reader, and the growth inhibition rate (%) at each concentration was calculated from the following equation. […] [formula]

SW-1116 cells = test: Growth inhibition of SW-1116 cells derived from colon cancer, 96 h, methylene blue staining; type: cell-based
Procedure: as §1

[1] = in words, clinical use; cited from earlier work
[2] = in words, prior art; cited from earlier work

Compound | IC50 PC-3 (PC-3 cells) [µg/mL] | IC50 SW-1116 (SW-1116 cells) [µg/mL] | Solubility in water [mg/mL] | side effects [1] | antitumor effect [2]
CC(C)(O)C(=O)[O-].CC(C)(O)C(=O)[O-].N[C@@H]1CCCC[C@H]1N.[Pt+2] (relative stereo) [compound No. 8, cis-Bis(2-hydroxy-2-methylpropionato)-trans-1,2-diaminocyclohexane platinum (II)] | 1.57 | 0.21 | – | – | –
CC(C)(CO)C(=O)[O-].CC(C)(CO)C(=O)[O-].N[C@@H]1CCCC[C@H]1N.[Pt+2] (relative stereo) [compound No. 10, cis-Bis(3-hydroxy-2,2-dimethylpropionato)-trans-1,2-diaminocyclohexane platinum (II)] | 0.50 | 0.065 | – | – | –
CC(O)(CCO)CC(=O)[O-].CC(O)(CCO)CC(=O)[O-].N[C@@H]1CCCC[C@H]1N.[Pt+2] (relative stereo) [compound No. 13, Cis-Bis(3,5-dihydroxy-3-methylvalerato)-trans-1,2-diaminocyclohexane platinum (II)] | 0.76 | 0.085 | – | – | –
N.N.[Cl][Pt][Cl] [cis-Platin, cis-dichlorodiammine platinum (II), reference compound] | 0.40 | 0.36 | – | strong side effects such as renal toxicity and vomitting toxicity | very excellent antitumor effect
CC(C)(CO)[C@@H](O)C(=O)[O-].CC(C)(CO)[C@@H](O)C(=O)[O-].NCC1(N)CCCCC1.[Pt+2] [compound No. 4, cis-Bis[(R)-2,4-dihydroxy-3,3-dimethylbutyrato]-1-amino-1-aminomethylcyclohexane platinum (II)] | 0.73 | 0.37 | > 100 | – | –
CC(C)(CO)C(O)C(=O)[O-].CC(C)(CO)C(O)C(=O)[O-].NC1CCCCC1N.[Pt+2] [compound No. 9, cis-Bis[(S)-2,4-dihydroxy-3,3-dimethylbutyrato]-trans-(R,R)-1,2-diaminocyclohexane platinum (II)] | 0.45 | 0.057 | – | – | –
CC(O)(CCO)CC(=O)[O-].CC(O)(CCO)CC(=O)[O-].N.N.[Pt+2] (stereo not drawn) [compound No. 12, cis-Bis(3,5-dihydroxy-3-methylvalerato)-diammine platinum (II)] | – | – | > 100 | – | –
CC(O)(CCO)CC(=O)[O-].CC(O)(CCO)CC(=O)[O-].NCC1(N)CCCCC1.[Pt+2] (stereo not drawn) [compound No. 15, cis-Bis(3,5-dihydroxy-3-methylvalerato)-1-amino-1-aminomethylcyclohexane platinum (II)] | 0.80 | 0.14 | > 100 | – | –
cis-Bis[(R)-2,4-dihydroxy-3,3-dimethylbutyrato]-trans-(R,R)-1,2-diaminocyclohexane platinum (II) [compound No. 5] | 0.60 | 0.060 | > 100 | – | –
cis-Bis[(R)-2,4-dihydroxy-3,3-dimethylbutyrato]diammine platinum (II) [compound No. 1] | – | – | > 100 | – | –

Now from value to compound, other results behind:

IC50 PC-3 (PC-3 cells) [µg/mL] | IC50 SW-1116 (SW-1116 cells) [µg/mL] | Solubility in water [mg/mL] | Compound | side effects [1] | antitumor effect [2]
0.60 | 0.082 | – | CC(C)(CO)[C@@H](O)C(=O)NCCC(=O)[O-].CC(C)(CO)[C@@H](O)C(=O)NCCC(=O)[O-].N[C@@H]1CCCC[C@H]1N.[Pt+2] (stereo in doubt) [compound No. 17, cis-Bis[(R)-pantothenato]-trans-(R,R)-1,2-diaminocyclohexane platinum (II)] | – | –
0.35 | 0.36 | > 20 | CC(C)(CO)C(=O)[O-].CC(C)(CO)C(=O)[O-].C[C@@H](CN)CCN.[Pt+2] (stereo in doubt) [compound No. 20, cis-Bis(3-hydroxy-2,2-dimethylpropionato)(R)-1,4-diamino-2-methylbutane platinum (II)] | – | –
0.53 | 0.37 | > 100 | CC(C)(CO)C([O-])C(=O)[O-].C[C@@H](CN)CCN.[Pt+2] (stereo in doubt) [compound No. 21, cis-[2-(2-Hydroxy-1,1-dimethylethyl)-glycolato-O,O']-(R)-1,4-diamino-2-methylbutane platinum (II)] | – | –
2.03 | 0.25 | – | CC(C)(CO)C([O-])C(=O)[O-].NC1CCCCC1N.[Pt+2] (stereo not drawn) [compound No. 18, cis-[2-(2-Hydroxy-1,1-dimethylethyl)-glycolato-O,O']-trans-1,2-diaminocyclohexane platinum (II)] | – | –
0.40 | 0.36 | – | CC(C)(CO)C(O)C(=O)[O-].CC(C)(CO)C(O)C(=O)[O-].CC(CN)CCN.[Pt+2] [compound No. 19, cis-Bis[(R)-2,4-dihydroxy-3,3-dimethylbutyrato]-(R)-1,4-diamino-2-methylbutane platinum (II)] | – | –
